Reference: US11795196B2, “Mitochondria-targeting peptides” (Stealth BioTherapeutics Corp., priority 2017, dated 2023)

Key:
isolated rat hearts = assay: Ischemia-reperfusion injury, Langendorff isolated heart preparation; conditions: 30 min LAD occlusion + 120 min reperfusion, compound 1 μM in perfusion solution, mean; for White Necrotic Area, % of area at risk: only white necrotic tissue
rat [1] = assay: Rat Myocardial Infarction Model; assay type: in vivo; conditions: s.c. 2×2 mg/kg, 30 min before ischemia and 5 min before reperfusion, 30 min LAD occlusion, 24 hours post-reperfusion, n=8
Procedure: The Rat Myocardial Infarction Model was performed by IPST Therapeutique Inc, Sherbrooke, Quebec, Canada. The animals were randomized in terms of even distribution between treatment groups based on their body weight by the Study Director with the aim of scheduling animal from each treatment group for each day of surgery (when possible). • 1) Sham group: size of the group: n=2. Route of administration: n/a; • 2) Vehicle group: size of the group: n=8. Route of administration: s.c.; • 3) Testing article group: size of the group: n=8. Route of administration: s.c.; Treatment dose: 2×2 mg/kg, 30 min before ischemia and 5 min before reperfusion. Experimental Procedures Study Design • 1) On the day of the surgery, the rat will be anaesthetized with a mixture of 2 to 2.5%. isoflurane USP (Abbot Laboratories, Montreal Canada) in oxygen, and placed on a heating pad to maintain body temperature. • 2) The animal will be intubated and immediately ventilated by means of a positive-pressure rodent respirator set at 10 mL/kg bodyweight at a frequency of 65-70 strokes/min. • 3) A baseline blood sample (1 mL) will be taken from the jugular vein for baseline biomarkers quantification. The blood will be collected in lithium heparin microtainers and centrifuged at 3000 rpm, at 4±2° C. for 10 minutes. The plasma will be aliquoted in 2 samples of equal volume (approximately 250 μL). […] A 1 mL blood sample will be taken from the jugular vein, for 24 hrs biomarkers quantification. • 11) The heart will be excised and mounted into a Langendorff apparatus. […]

rat [2] = assay: Rat Acute Kidney Injury (AKI) Model, renal ischemia-reperfusion; assay type: in vivo; design: concentration or dose not given beside the values; conditions: 30 minutes renal artery occlusion of both kidneys, 24 hours after reperfusion, relative to vehicle
Procedure: The Rat Acute Kidney Injury (AKI) Model was performed by IPST Therapeutique Inc, Sherbrooke, Quebec, Canada. The animals were randomized in terms of even distribution between treatment groups based on their body weight by the Study Director with the aim of scheduling animal from each group at each day of surgery. The rats will be given free access to food and water. Experimental Procedures Induction of Ischemia-Reperfusion • 1. Rats will be anaesthetized with isoflurane USP (Abbot Laboratories, Montreal Canada) 2% in oxygen and placed on a heated pad to maintain body temperature. The ECG and oxygen saturation will be monitored for the entire surgical process. The body temperature will be monitored with a probe thermometer introduced into the abdomen, very close to the kidneys. • 2. A 1 mL blood draw will be taken from the jugular vein. The blood will be collected into lithium heparin tubes and centrifuged at 3000 rpm for 10 min. to obtain the plasma. The plasma will be separated into 200 μL aliquot and stored at −20° C. until dosage of biomarkers. • 3. The abdomen will be disinfected with providone iodine and alaparotomy will be performed. • 4. The kidneys will be exposed and a temporary suture will be placed around renal artery of the two kidneys. Renal ischemia will be visually confirmed by a gradual changed of the kidneys colour going from red to dark purple within a couple of minutes following the start of the ischemia. During the ischemia, the kidneys will be kept moist and warm using a heat lamp and sterile gauze soaked in warm (37° C.) saline. The temperature will be monitored with a probe thermometer introduced into the abdomen, very close to the kidneys. • 5. After 30 minutes of occlusion, the suture will be removed. • 6. The abdominal wounds will be closed with 4-0 silk suture, and the animal will be return to its cage. • 7. Twenty-four hours after reperfusion the rats will be re-anesthetized. A second blood draw will be taken as was done before the ischemia. • 8. Sham will be treated under same conditions as vehicle, except, kidneys will not be subjected to ischemic conditions. Detection of Biomarkers A 200 μL aliquot of plasma sample will be taken before the ischemia and 24 hours following the ischemia; both will be sent to the clinical laboratory of the CHUS (Centre Hospitalier Universitaire de Sherbrooke, Quebec, Canada) for detection of plasma level of creatinine (p.Cr) and Blood Urea Nitrogen (BUN). Computer Systems The following are the validated computer systems to be used during the conduct of this study. The analysis software will be Microsoft Office Excel 2007 installed on networked personal computers running Microsoft Windows8, XP Professional or Vista. Data Analysis Values are presented as means±SEM (standard error of the means) and presented by the symbol+on the graph. Repeat un-paired Student's t-tests were performed in Microsoft Excel 2007 on all experimental data. Differences were considered significant when p≤ 0.05. The vehicle group was compared to the sham group while the test article was compared to the vehicle group. The plasma creatinine post-UR (% mean of vehicle) was calculated using the following formula:
[formula] Where: p.Cr=Plasma creatinine Mean Δ plasma creatinine in sham group=Mean (plasma creatinine 24 h post-isch.−plasma creatinine pre-isch.) in sham group Mean Δ plasma creatinine in vehicle group=Mean ((plasma creatinine 24 h post-inch.−plasma creatinine pre-isch.)−Mean Δ plasma creatinine in sham group) in vehicle group The BUN post-I/R (% mean of vehicle) was calculated using the following formula:
[formula] […]

SMILES | Infarct size, % of area at risk (isolated rat hearts) [%] | White Necrotic Area, % of area at risk (isolated rat hearts) [%] | Infarct size (%), Mean (rat [1]) [%] | BUN, % Protection, Mean (rat [2]) [%] | Plasma Creatinine, % Protection, Mean (rat [2]) [%]
Cc1cc(O)cc(C)c1C[C@H](NC(=O)[C@H](N)CCCNC(=N)N)C(=O)N[C@@H](CCCCN)c1nc(C23CC4CC(CC(C4)C2)C3)no1 [Example 38, D-Arg-DMT-NH((S)-1-(3-(adamantan-1-yl)-1,2,4-oxadiazol-5-yl)-5-aminopent-1-yl)] | 31 | 15 | 30.6 |  | 
Cc1cc(O)cc(C)c1C[C@H](NC(=O)[C@H](N)CCCNC(=N)N)C(=O)N[C@@H](CCCCN)c1nc(Cc2ccc(C(C)(C)C)cc2)no1 [Example 33, (R)-2-amino-N-((S)-1-(((S)-5-amino-1-(3-(4-(tert-butyl)benzyl)-1,2,4-oxadiazol-5 yl)pentyl)amino)-3-(4-hydroxy-2,6-dimethylphenyl)-1-oxopropan-2-yl)-5-guanidinopentanamide] |  |  |  | 35.9 | 38.9
Cc1cc(O)cc(C)c1C[C@H](NC(=O)[C@H](N)CCNC(=N)N)C(=O)N[C@@H](CCCCN)c1nc(Cc2ccccc2)no1 [Example 64, (R)-2-amino-N-((S)-1-(((S)-5-amino-1-(3-benzyl-1,2,4-oxadiazol-5 yl)pentyl)amino)-3-(4-hydroxy-2,6-dimethylphenyl)-1-oxopropan-2-yl)-4-guanidinobutanamide] | 38 | 20 |  |  | 
Cc1cc(O)cc(C)c1C[C@H](NC(=O)[C@H](N)CCCNC(=N)N)C(=O)N[C@@H](CCCCN)c1nc(CC23CC4CC(CC(C4)C2)C3)no1 [Example 37, (R)-N-((S)-1-(((S)-1-(3-(adamantan-1-ylmethyl)-1,2,4-oxadiazol-5-yl)-5-aminopentyl)amino)-3-(4-hydroxy-2,6-dimethylphenyl)-1-oxopropan-2-yl)-2-amino-5-guanidinopentanamide] |  |  | 29.2 | 44.3 | 30.7
Cc1cc(O)cc(C)c1C[C@H](NC(=O)[C@H](N)CCNC(=N)N)C(=O)N[C@@H](Cc1c[nH]cn1)c1nc(CC23CC4CC(CC(C4)C2)C3)no1 [Example 68, (R)-N-((S)-1-(((S)-1-(3-(adamantan-1-yl)methyl-1,2,4-oxadiazol-5-yl)-2-(1H-imidazol-4 yl)ethyl)amino)-3-(4-hydroxy-2,6-dimethylphenyl)-1-oxopropan-2-yl)-2-amino-4-guanidinobutanamide] | 35 | 18 |  |  | 
Cc1cc(O)cc(C)c1C[C@H](NC(=O)[C@H](N)CCCNC(=N)N)C(=O)N[C@@H](Cc1c[nH]cn1)c1nc(CCc2ccccc2)no1 [Example 53, (R)-N-((S)-1-(((S)-2-(1H-imidazol-4-yl)-1-(3 phenethyl-1,2,4-oxadiazol-5 yl)ethyl)amino)-3-(4-hydroxy-2,6-dimethylphenyl)-1-oxopropan-2-yl)-2-amino-5-guanidinopentanamide] | 30 | 21 |  |  | 
Cc1cc(O)cc(C)c1C[C@H](NC(=O)[C@H](N)CCCn1ccnc1N)C(=O)N[C@@H](CCCCN)c1nc(CC2CCCCC2)no1 [Example 65, (R)-2-amino-N-((S)-1-(((S)-5-amino-1-(3-(cyclohexylmethyl)-1,2,4-oxadiazol-5 yl)pentyl)amino)-3-(4-hydroxy-2,6-dimethylphenyl)-1-oxopropan-2-yl)-5-(2-amino-1H-imidazol-1-yl)pentanamide] | 24 | 17 |  |  | 
Cc1cc(O)cc(C)c1C[C@H](NC(=O)[C@@H](CCN)NC(=N)N)C(=O)N[C@@H](CCCN)c1nc(Cc2ccccc2)no1 [Example 82, (R)-4-amino-N-((S)-1-(((5)-4-amino-1-(3-benzyl-1,2,4-oxadiazol-5-yl)butyl)amino)-3-(4-hydroxy-2,6-dimethylphenyl)-1-oxopropan-2-yl)-2-guanidinobutanamide] | 42 | 24 |  | 25.5 | 32.0
Cc1cc(O)cc(C)c1C[C@H](NC(=O)[C@H](N)CCCn1ccnc1N)C(=O)N[C@@H](CCCN)c1nc(CC2CCCCC2)no1 [Example 42, (R)-2-amino-N-((S)-1-(((S)-4-amino-1-(3-(cyclohexylmethyl)-1,2,4-oxadiazol-5 yl)butyl)amino)-3-(4-hydroxy-2,6-dimethylphenyl)-1-oxopropan-2-yl)-5-(2-amino-1H-imidazol-1-yl)pentanamide] |  |  |  | 50.4 | 53.4
Cc1cc(O)cc(C)c1C[C@H](NC(=O)[C@H](N)CCCNC(=N)N)C(=O)N[C@@H](CCCCN)c1nc(Cc2ccccc2)no1 [Example 31, (R)-2-amino-N-((S)-1-(((S)-5-amino-1-(3-benzyl-1,2,4-oxadiazol-5-yl)pentyl)amino)-3-(4-hydroxy-2,6-dimethylphenyl)-1-oxopropan-2-yl)-5-guanidinopentanamide] | 35 | 22 | 16.4 | 81.4 | 86.2
